Numbered stars: 1 amine (or outer) side, 2 acyl side, 3 side chain; on linkers, the order of the positions; unused ones are H or OH. Square brackets hold non-standard residues; d marks the D form. Side chains are listed from the residue outwards. Peptide text beside a SMILES is read from it. * marks the point of attachment. γGlu = O=C(O)[C@H](CCC(=O)[*:2])N[*:1]; Palmitoyl = CCCCCCCCCCCCCCCC(=O)*; Aib = CC(C)(N)C(=O)O
Key:
human GLP-1 R = biological target: T1, human GLP-1 R (Homo sapiens, UniProt P43220); test: Human GLP-1 receptor (GLP-1 R) activity assay, cAMP induction (AlphaScreen cAMP kit); type: cell-based; details: HEK293 cells expressing the human GLP-1 R, 15 min at 37° C., average values of multiple determinations, read-out: GLP1 R (EC50 in nM)
T1 construct: expressed in transfected cells
T1 sequence (P43220 24-463): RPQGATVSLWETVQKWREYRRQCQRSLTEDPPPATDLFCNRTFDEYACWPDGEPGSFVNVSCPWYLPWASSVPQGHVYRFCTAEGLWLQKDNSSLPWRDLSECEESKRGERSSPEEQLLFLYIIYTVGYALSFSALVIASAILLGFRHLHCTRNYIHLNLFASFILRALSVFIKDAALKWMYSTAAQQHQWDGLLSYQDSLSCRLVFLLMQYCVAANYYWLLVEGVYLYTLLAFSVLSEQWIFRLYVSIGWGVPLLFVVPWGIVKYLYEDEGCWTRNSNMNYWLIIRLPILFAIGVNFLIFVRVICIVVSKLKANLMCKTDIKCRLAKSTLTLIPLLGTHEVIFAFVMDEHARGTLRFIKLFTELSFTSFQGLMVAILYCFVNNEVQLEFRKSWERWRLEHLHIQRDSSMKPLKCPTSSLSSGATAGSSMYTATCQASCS
Outline: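 Stable HEK293 clones expressing human GIP R or GLP-1 R, grown 1 day, washed in Tyrode's buffer (10 mM HEPES, pH 7.4), then stimulated with peptide. Cells lysed and cAMP quantified by AlphaScreen competition with biotinylated cAMP, 1 h dark incubation at room temperature.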

Male C57BL/6J mice = test: IPGTT (Intraperitoneal Glucose Tolerance Test) in mice; type: in vivo; details: for Effect on glucose tolerance as compared to vehicle: glucose 2 g/kg i.p., peptides s.c., all time points, p<0.05 vs. vehicle
Protocol: IPGTT (Intraperitoneal Glucose Tolerance Test) in Mice
Male C57BL/6J mice (Charles River, Germany) were maintained on normal chow (Altromin 1324, Brogaarden A/S, Gentofte, Denmark) and domestic quality water with added citric acid to pH˜3.6. The animals were housed pair-wise in a light-, temperature-, and humidity-controlled room (12:12 h light-dark cycle, with lights on at 06.00-18.00 hr; 20-22° C.; 50-80% relative humidity). Mice were fasted for 5 hr before the IPGTT. Peptides and vehicle were administered subcutaneously before the intraperitoneal injection of glucose (t=0 min; 2 g/kg; 5 ml/kg). Tail vein blood was sampled at time t=0 (before glucose administration), 15, 30, 45, 60, 90, and 120 min for measurements of blood glucose.

in vivo = details: C57BL/6J, mouse, plasma, sc, 200 nmol/kg
Protocol: C57BL/6J mice were given a single subcutaneous dose of 200 nmol/kg body weight of each peptide to be tested. Blood samples were drawn 0.5, 2, 4, 6, 8, 16, 24 and 36 hours post-dose by sublingual bleeding. At each time point, samples from two mice were taken, i.e. 16 mice per compound. The mice were euthanized immediately after blood sampling by cervical dislocation. Plasma samples were analyzed after solid phase extraction (SPE) by liquid chromatography mass spectrometry (LC-MS/MS).

human GIP R = biological target: T2, human GIP R (Homo sapiens, UniProt P48546); test: Human GIP receptor (GIP R) activity assay, cAMP induction (AlphaScreen cAMP kit); type: cell-based; details: HEK293 cells expressing the human GIP R; cAMP induction, 15 min at 37° C.; average values of multiple determinations; read-out: GIP R (EC50 in nM)
T2 construct: expressed in transfected cells
T2 sequence (P48546 22-466): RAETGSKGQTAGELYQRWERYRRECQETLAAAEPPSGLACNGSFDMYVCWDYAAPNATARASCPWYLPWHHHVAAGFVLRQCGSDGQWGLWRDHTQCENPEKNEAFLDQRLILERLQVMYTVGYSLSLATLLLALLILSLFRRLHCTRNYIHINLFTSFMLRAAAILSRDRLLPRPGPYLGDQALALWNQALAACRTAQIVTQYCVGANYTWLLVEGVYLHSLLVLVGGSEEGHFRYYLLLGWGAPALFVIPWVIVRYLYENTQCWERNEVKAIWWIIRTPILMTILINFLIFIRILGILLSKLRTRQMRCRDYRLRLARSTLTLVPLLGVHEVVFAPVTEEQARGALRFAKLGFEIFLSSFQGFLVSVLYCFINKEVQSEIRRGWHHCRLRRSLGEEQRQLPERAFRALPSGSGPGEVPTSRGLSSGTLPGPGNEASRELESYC
Protocol: Human GIP Receptor (GIP R) and GLP-1 Receptor (GLP-1 R) Activity Assay
In vitro effects of peptide conjugates of the invention were assessed by measuring the induction of cAMP following stimulation of the respective receptor by GIP, GLP1 or analogues of these, as outlined in the invention, using the AlphaSceen® cAMP kit from Perkin-Elmer according to instructions. Briefly. HEK293 cells expressing the human GIP R or GLP-1 R (stable cell lines generated through transfection of the cDNA for human GIP R or GLP-1 and selection of stable clones) were seeded at 30,000 cells/well in 96-well microtiter plates coated with 0.01% poly-L-lysine, and grown for 1 day in culture in 200 μl growth medium (DMEM, 10% FCS, Penicillin (100 IU/ml), Streptomycin (100 μg/ml)). On the day of analysis, growth medium was removed and the cells were washed once with […] Tyrode's buffer (Tyrode's Salts (9.6 g/1), 10 mM HEPES, pH 7.4). […] The Assay buffer was removed and cells are lysed in 80 μl Lysis buffer (0.1% w/v BSA, 5 mM HEPES, 0.3% v/v Tween-20) per well. From each well 10 μl lysed cells was transferred to a 384-well plate and mixed with 15 μl bead-mix (1 Unit/15 μl anti-cAMP Acceptor Beads, 1 Unit/15 μl Donor Beads, and 1 Unit/15 μl Biotinylated cAMP in Assay Buffer). The plates were mixed and incubated in the dark for an hour at room temperature before measuring using an Envision™ plate reader (Perkin-Elmer).

| Structure (SMILES) | EC50 (human GLP-1 R) | EC50 (human GIP R) | Effect on glucose tolerance as compared to vehicle (Male C57BL/6J mice) | half-life (in vivo) | Reduction in blood glucose compared with liraglutide (Male C57BL/6J mice; time t=60 min, p<0.05 vs. liraglutide) |
| --- | --- | --- | --- | --- | --- |
| CCCCCCCCCCCCCCCC(=O)N[C@@H](CCC(=O)NCCCC[C@H](NC(=O)[C@H](CCCCN)NC(=O)[C@H](CC(=O)O)NC(=O)[C@H](CC(C)C)NC(=O)C(C)(C)NC(=O)[C@@H](NC(=O)[C@H](CO)NC(=O)[C@H](Cc1ccc(O)cc1)NC(=O)[C@H](CC(=O)O)NC(=O)[C@H](CO)NC(=O)[C@@H](NC(=O)[C@H](Cc1ccccc1)NC(=O)[C@@H](NC(=O)CNC(=O)[C@H](CCC(=O)O)NC(=O)C(C)(C)NC(=O)[C@@H](N)Cc1ccc(O)cc1)[C@@H](C)O)[C@@H](C)O)[C@@H](C)CC)C(=O)N[C@@H](C)C(=O)N[C@@H](CCC(N)=O)C(=O)N[C@@H](CCCNC(=N)N)C(=O)N[C@@H](C)C(=O)N[C@@H](Cc1ccccc1)C(=O)N[C@H](C(=O)N[C@@H](CCC(=O)O)C(=O)N[C@@H](Cc1c[nH]c2ccccc12)C(=O)N[C@@H](CC(C)C)C(=O)N[C@@H](CC(C)C)C(=O)N[C@@H](C)C(=O)N[C@@H](CCC(N)=O)C(=O)NCC(=O)N1CCC[C@H]1C(=O)N[C@@H](CO)C(=O)N[C@@H](CO)C(=O)NCC(=O)N[C@@H](C)C(=O)N1CCC[C@H]1C(=O)N1CCC[C@H]1C(=O)N1CCC[C@H]1C(=O)N[C@@H](CO)C(N)=O)C(C)C)C(=O)O [Compound 32] (H-Y[Aib]EGTFTSDYSI[Aib]LDKK([γGlu-Palmitoyl])AQRAFVEWLLAQGPSSGAPPPS-NH2) | 0.018 nM | – | significantly improved glucose tolerance | 3.4 h | – |
| CCCCCCCCCCCCCCCC(=O)N[C@@H](CCC(=O)NCCCC[C@H](NC(=O)[C@H](CCCCN)NC(=O)[C@H](CC(=O)O)NC(=O)[C@H](CC(C)C)NC(=O)[C@H](Cc1ccc(O)cc1)NC(=O)[C@@H](NC(=O)[C@H](CO)NC(=O)[C@H](Cc1ccc(O)cc1)NC(=O)[C@H](CC(=O)O)NC(=O)[C@H](CO)NC(=O)[C@@H](NC(=O)[C@H](Cc1ccccc1)NC(=O)[C@@H](NC(=O)CNC(=O)[C@H](CCC(=O)O)NC(=O)C(C)(C)NC(=O)[C@@H](N)Cc1ccc(O)cc1)[C@@H](C)O)[C@@H](C)O)[C@@H](C)CC)C(=O)N[C@@H](C)C(=O)N[C@@H](CCC(N)=O)C(=O)N[C@@H](CCCNC(=N)N)C(=O)N[C@@H](C)C(=O)N[C@@H](Cc1ccccc1)C(=O)N[C@H](C(=O)N[C@@H](CCC(=O)O)C(=O)N[C@@H](Cc1c[nH]c2ccccc12)C(=O)N[C@@H](CC(C)C)C(=O)N[C@@H](CC(C)C)C(=O)N[C@@H](C)C(=O)N[C@@H](CCC(N)=O)C(=O)NCC(=O)N1CCC[C@H]1C(=O)N[C@@H](CO)C(=O)N[C@@H](CO)C(=O)NCC(=O)N[C@@H](C)C(=O)N1CCC[C@H]1C(=O)N1CCC[C@H]1C(=O)N1CCC[C@H]1C(=O)N[C@@H](CO)C(N)=O)C(C)C)C(=O)O [Compound 33] (H-Y[Aib]EGTFTSDYSIYLDKK([γGlu-Palmitoyl])AQRAFVEWLLAQGPSSGAPPPS-NH2) | 0.031 nM | – | significantly improved glucose tolerance | 3.7 h | statistically significant greater reduction |
| CC[C@H](C)[C@H](NC(=O)[C@H](CO)NC(=O)[C@H](Cc1ccc(O)cc1)NC(=O)[C@H](CC(=O)O)NC(=O)[C@H](CO)NC(=O)[C@@H](NC(=O)[C@H](Cc1ccccc1)NC(=O)[C@@H](NC(=O)CNC(=O)[C@H](CCC(=O)O)NC(=O)C(C)(C)NC(=O)[C@@H](N)Cc1ccc(O)cc1)[C@@H](C)O)[C@@H](C)O)C(=O)N[C@@H](Cc1ccc(O)cc1)C(=O)N[C@@H](CC(C)C)C(=O)N[C@@H](CCC(=O)O)C(=O)N[C@@H](CCCCN)C(=O)N[C@@H](CCCCN)C(=O)N[C@@H](C)C(=O)N[C@@H](C)C(=O)N[C@@H](Cc1c[nH]cn1)C(=O)N[C@@H](CC(=O)O)C(=O)N[C@@H](Cc1ccccc1)C(=O)N[C@H](C(=O)N[C@@H](CCC(=O)O)C(=O)N[C@@H](Cc1c[nH]c2ccccc12)C(=O)N[C@@H](CC(C)C)C(=O)N[C@@H](CC(C)C)C(=O)N[C@@H](CO)C(=O)N[C@@H](C)C(N)=O)C(C)C [Compound 38] (H-Y[Aib]EGTFTSDYSIYLEKKAAHDFVEWLLSA-NH2) | 0.018 nM | 0.007 nM | – | – | – |

More lines, main results first:

| EC50 (human GLP-1 R) | EC50 (human GIP R) | Structure (SMILES) | Effect on glucose tolerance as compared to vehicle (Male C57BL/6J mice) | half-life (in vivo) | Reduction in blood glucose compared with liraglutide (Male C57BL/6J mice; time t=60 min, p<0.05 vs. liraglutide) |
| --- | --- | --- | --- | --- | --- |
| 0.012 nM | 0.053 nM | CC[C@H](C)[C@H](NC(=O)[C@H](CO)NC(=O)[C@H](Cc1ccc(O)cc1)NC(=O)[C@H](CC(=O)O)NC(=O)[C@H](CO)NC(=O)[C@@H](NC(=O)[C@H](Cc1ccccc1)NC(=O)[C@@H](NC(=O)CNC(=O)[C@H](CCC(=O)O)NC(=O)C(C)(C)NC(=O)[C@@H](N)Cc1ccc(O)cc1)[C@@H](C)O)[C@@H](C)O)C(=O)N[C@@H](Cc1ccc(O)cc1)C(=O)N[C@@H](CC(C)C)C(=O)N[C@@H](CC(=O)O)C(=O)N[C@@H](CO)C(=O)N[C@@H](CCCCN)C(=O)N[C@@H](C)C(=O)N[C@@H](CCC(N)=O)C(=O)N[C@@H](CCCNC(=N)N)C(=O)N[C@@H](C)C(=O)N[C@@H](Cc1ccccc1)C(=O)N[C@H](C(=O)N[C@@H](CC(N)=O)C(=O)N[C@@H](Cc1c[nH]c2ccccc12)C(=O)N[C@@H](CC(C)C)C(=O)N[C@@H](CC(C)C)C(=O)N[C@@H](C)C(=O)NC(C)(C)C(=O)N[C@@H](CCCCN)C(N)=O)C(C)C [Compound 16] (H-Y[Aib]EGTFTSDYSIYLDSKAQRAFVNWLLA[Aib]K-NH2) | – | – | – |
| 0.022 nM | 0.015 nM | CC[C@H](C)[C@H](NC(=O)[C@H](CCCCN)NC(=O)[C@H](CC(=O)O)NC(=O)[C@H](CC(C)C)NC(=O)[C@H](C)NC(=O)[C@@H](NC(=O)[C@H](CO)NC(=O)[C@H](Cc1ccc(O)cc1)NC(=O)[C@H](CC(=O)O)NC(=O)[C@H](CO)NC(=O)[C@@H](NC(=O)[C@H](Cc1ccccc1)NC(=O)[C@@H](NC(=O)CNC(=O)[C@H](CCC(=O)O)NC(=O)C(C)(C)NC(=O)[C@@H](N)Cc1ccc(O)cc1)[C@@H](C)O)[C@@H](C)O)[C@@H](C)CC)C(=O)N[C@@H](C)C(=O)N[C@@H](CCC(N)=O)C(=O)N[C@@H](CCCNC(=N)N)C(=O)N[C@@H](C)C(=O)N[C@@H](Cc1ccccc1)C(=O)N[C@H](C(=O)N[C@@H](CC(N)=O)C(=O)N[C@@H](Cc1c[nH]c2ccccc12)C(=O)N[C@@H](CC(C)C)C(=O)N[C@H](C(=O)N[C@@H](C)C(=O)NC(C)(C)C(=O)N[C@@H](CCCCN)C(N)=O)C(C)C)C(C)C [Compound 3] (H-Y[Aib]EGTFTSDYSIALDKIAQRAFVNWLVA[Aib]K-NH2) | – | – | – |
| 0.012 nM | 0.007 nM | CC[C@H](C)[C@H](NC(=O)[C@H](CO)NC(=O)[C@H](Cc1ccc(O)cc1)NC(=O)[C@H](CC(=O)O)NC(=O)[C@H](CO)NC(=O)[C@@H](NC(=O)[C@H](Cc1ccccc1)NC(=O)[C@@H](NC(=O)CNC(=O)[C@H](CCC(=O)O)NC(=O)C(C)(C)NC(=O)[C@@H](N)Cc1ccc(O)cc1)[C@@H](C)O)[C@@H](C)O)C(=O)N[C@@H](Cc1ccc(O)cc1)C(=O)N[C@@H](CC(C)C)C(=O)N[C@@H](CC(=O)O)C(=O)N[C@@H](CCCCN)C(=O)N[C@@H](CCCCN)C(=O)N[C@@H](C)C(=O)N[C@@H](C)C(=O)N[C@@H](Cc1c[nH]cn1)C(=O)N[C@@H](CC(=O)O)C(=O)N[C@@H](Cc1ccccc1)C(=O)N[C@H](C(=O)N[C@@H](CCC(=O)O)C(=O)N[C@@H](Cc1c[nH]c2ccccc12)C(=O)N[C@@H](CC(C)C)C(=O)N[C@@H](CC(C)C)C(=O)N[C@@H](CO)C(=O)N[C@@H](C)C(N)=O)C(C)C [Compound 42] (H-Y[Aib]EGTFTSDYSIYLDKKAAHDFVEWLLSA-NH2) | – | – | – |

Reference: US10100097B2, “GIP-GLP-1 dual agonist compounds and methods” (Zealand Pharma A/S, priority 2012, dated 2018)
